Results on 10 molecules are retold here after US10556943B2, “HLA-DR binding peptides and their uses” (priority 2007, dated 2020).

One assay deals with short term T cell lines. The assay can be described thus: IFN-γ ELISpot analysis of short term T cell lines (natural processing). Type of assay: cell-based, human. To be noted: T cell lines respond to peptide and protein fragment; FIGS. 5, 6.
Another assay has as its system patient-derived PBMC. The assay can be described thus: 10-day interferon-gamma ELIspot on PBMC of patients and healthy donors. In kind it is cell-based, human. To be noted: for % = Percent of patients with responses: ELIspot, patients with either breast or ovarian cancer; for fraction of patients that had mean T cell values above the cutoff: cutoff = mean and two standard deviations of normal healthy individuals.

Description for patient-derived PBMC: Enzyme-linked immunosorbent spot assay.
An interferon-gamma ELIspot assay was used to assess immunity to the indiscriminate binding peptides in 48 patients with either breast or ovarian cancer and 18 healthy controls.
Using an ELIspot assay with a limit of detection of approximately 1:100,000 antigen-specific T cells per million PBMC, patient-derived PBMC were screened for reactivity against all of the HLA-DR binding peptides.

With `CC[C@H](C)[C@H](NC(=O)[C@H](Cc1c[nH]cn1)NC(=O)[C@H](CC(C)C)NC(=O)[C@H](CO)NC(=O)[C@H](Cc1ccc(O)cc1)NC(=O)[C@H](CC(C)C)NC(=O)[C@H](Cc1c[nH]cn1)NC(=O)[C@H](CCC(=O)O)NC(=O)[C@H](CC(C)C)NC(=O)[C@@H]1CCCN1C(=O)CNC(=O)[C@H](CCCNC(=N)N)NC(=O)[C@@H](N)CCC(=O)O)C(=O)N1CCC[C@H]1C(=O)N[C@@H](CC(N)=O)C(=O)O` [Peptide 9019.0190], the “naturally processed and presented antigen” value in the assay with short term T cell lines is on record as “naturally processed peptides”. Further, the “% = Percent of patients with responses” value in the assay with patient-derived PBMC worked out at 23%.

As to `CC(C)C[C@H](NC(=O)[C@H](CC(N)=O)NC(=O)[C@H](CO)NC(=O)[C@@H](NC(=O)[C@H](Cc1ccccc1)NC(=O)[C@H](CS)NC(=O)[C@H](C)NC(=O)[C@@H](N)Cc1ccc(O)cc1)C(C)C)C(=O)N[C@@H](C)C(=O)N[C@H](C(=O)NCC(=O)N[C@@H](CCCNC(=N)N)C(=O)N[C@@H](CC(N)=O)C(=O)N[C@@H](CC(N)=O)C(=O)N[C@@H](CO)C(=O)O)[C@@H](C)O` [Peptide 9019.0141], the “% = Percent of patients with responses” value in the assay on patient-derived PBMC is on record as 25%.

As for `CC[C@H](C)[C@H](NC(=O)[C@H](CCCNC(=N)N)NC(=O)[C@H](CC(C)C)NC(=O)[C@H](CCCNC(=N)N)NC(=O)[C@H](CCC(N)=O)NC(=O)[C@H](CC(C)C)NC(=O)[C@@H]1CCCN1C(=O)[C@@H](NC(=O)[C@H](CCC(N)=O)NC(=O)[C@H](CCCNC(=N)N)NC(=O)[C@@H](NC(=O)[C@H](CCC(N)=O)NC(=O)[C@H](CC(N)=O)NC(=O)[C@@H](N)Cc1c[nH]cn1)C(C)C)C(C)C)C(=O)N[C@H](C(=O)O)C(C)C` [Peptide 9019.0034], the “naturally processed and presented antigen” value in the assay with short term T cell lines is “naturally processed and presented antigens”.

Turning to `CC[C@H](C)[C@H](N)C(=O)N[C@@H](CCCCN)C(=O)N[C@@H](Cc1c[nH]c2ccccc12)C(=O)N[C@@H](CCSC)C(=O)N[C@@H](C)C(=O)N[C@@H](CC(C)C)C(=O)N[C@@H](CCC(=O)O)C(=O)N[C@@H](CO)C(=O)N[C@H](C(=O)N[C@@H](CC(C)C)C(=O)N[C@@H](CCCNC(=N)N)C(=O)N[C@@H](CCCNC(=N)N)C(=O)N[C@@H](CCCNC(=N)N)C(=O)N[C@@H](Cc1ccccc1)C(=O)N[C@H](C(=O)O)[C@@H](C)O)[C@@H](C)CC` [Peptide 9019.0003], in the assay with patient-derived PBMC (FIG. 1), the “fraction of patients that had mean T cell values above the cutoff” value was determined as 4%. The “patient response rate on exclusion of one healthy individual's data point” value with patient-derived PBMC (FIG. 1, robust healthy responder excluded from cutoff) is 15%.

As to `CC(C)C[C@H](NC(=O)[C@H](CC(C)C)NC(=O)[C@H](CC(C)C)NC(=O)[C@H](CC(C)C)NC(=O)[C@H](CC(C)C)NC(=O)[C@H](CC(C)C)NC(=O)[C@@H]1CCCN1)C(=O)NCC(=O)N[C@@H](C)C(=O)N[C@@H](CO)C(=O)NCC(=O)NCC(=O)NCC(=O)NCC(=O)NCC(=O)O` [Peptide 9019.0177], in the assay with short term T cell lines, the “naturally processed and presented antigen” value is “naturally processed peptides”.

In the case of `CC[C@H](C)[C@H](NC(=O)[C@@H]1CCCN1)C(=O)N[C@@H](CCCCN)C(=O)N[C@@H](Cc1c[nH]c2ccccc12)C(=O)N[C@@H](CCSC)C(=O)N[C@@H](C)C(=O)N[C@@H](CC(C)C)C(=O)N[C@@H](CCC(=O)O)C(=O)N[C@@H](CO)C(=O)N[C@H](C(=O)N[C@@H](CC(C)C)C(=O)N[C@@H](CCCNC(=N)N)C(=O)N[C@@H](CCCNC(=N)N)C(=O)N[C@@H](CCCNC(=N)N)C(=O)N[C@@H](Cc1ccccc1)C(=O)O)[C@@H](C)CC` [Peptide 9019.0087], the “naturally processed and presented antigen” value with short term T cell lines is “naturally processed and presented antigens”. Moreover, the “% = Percent of patients with responses” value with patient-derived PBMC came out at 25%. Further, in the assay on patient-derived PBMC (FIG. 1), the “fraction of patients that had mean T cell values above the cutoff” value came out at 25%.

Regarding `CC(C)C[C@H](NC(=O)[C@H](CC(C)C)NC(=O)[C@H](CC(C)C)NC(=O)[C@H](CC(C)C)NC(=O)[C@H](CC(C)C)NC(=O)[C@H](CC(C)C)NC(=O)[C@@H]1CCCN1C(=O)[C@H](CC(C)C)NC(=O)[C@H](CC(C)C)NC(=O)[C@@H]1CCCN1C(=O)[C@H](CC(C)C)NC(=O)[C@@H](N)CC(C)C)C(=O)NCC(=O)N[C@@H](C)C(=O)N[C@@H](CO)C(=O)O` [Peptide 9019.0176], in the assay with short term T cell lines, the “naturally processed and presented antigen” value was “naturally processed peptides”.

On to `CC[C@H](C)[C@H](NC(=O)[C@@H](NC(=O)[C@H](CC(C)C)NC(=O)[C@H](CCCCN)NC(=O)[C@H](C)NC(=O)[C@@H](NC(=O)[C@@H](NC(=O)[C@@H]1CCCN1C(=O)[C@@H]1CCCN1C(=O)[C@H](CC(N)=O)NC(=O)[C@H](Cc1c[nH]c2ccccc12)NC(=O)[C@H](Cc1ccccc1)NC(=O)[C@@H](NC(=O)[C@H](CC(C)C)NC(=O)[C@@H](N)CC(C)C)[C@@H](C)O)[C@@H](C)O)[C@@H](C)O)[C@@H](C)O)C(=O)O` [Peptide 9019.0105], for which the “% = Percent of patients with responses” value in the assay with patient-derived PBMC stood at 17%.

Consider `CC[C@H](C)[C@H](NC(=O)[C@H](CC(C)C)NC(=O)[C@H](CCCCN)NC(=O)CNC(=O)[C@@H](N)[C@@H](C)O)C(=O)N[C@@H](CCC(N)=O)C(=O)NCC(=O)N[C@@H](C)C(=O)N1CCC[C@H]1C(=O)N[C@H](C(=O)N[C@H](C(=O)N[C@@H](CCCNC(=N)N)C(=O)NCC(=O)N[C@@H](CC(=O)O)C(=O)N1CCC[C@H]1C(=O)O)[C@@H](C)CC)[C@@H](C)O` [Peptide 9019.0192], for which the “naturally processed and presented antigen” value in the assay on short term T cell lines is “naturally processed peptides”.

For the molecule `CC(C)C[C@H](NC(=O)[C@H](CO)NC(=O)[C@H](C)NC(=O)[C@H](CC(N)=O)NC(=O)[C@@H](NC(=O)[C@@H]1CCCN1C(=O)[C@H](CC(C)C)NC(=O)[C@H](Cc1ccc(O)cc1)NC(=O)[C@@H](NC(=O)[C@H](CC(C)C)NC(=O)[C@H](CCC(=O)O)NC(=O)[C@H](CC(C)C)NC(=O)[C@@H](N)CC(N)=O)[C@@H](C)O)[C@@H](C)O)C(=O)N[C@@H](CO)C(=O)N[C@@H](Cc1ccccc1)C(=O)O` [Peptide 9019.0030], in the assay on short term T cell lines, the “naturally processed and presented antigen” value is “naturally processed and presented antigens”. The “% = Percent of patients with responses” value in the assay with patient-derived PBMC came to 15%.
